Here are results for one molecule from patent US20080248134A1, “Oral compositions, use and combinations of N-[2-(dimethylamino)ethyl]-2,6 dimethyl-1-oxo-1,2-dihydrobenzo[b]-1,6-naphthyridine-4-carboxamide and closely related analogues thereof” (Auckland Uniservices Limited, priority 2005, published 2008).

Structures are written as SMILES. Entries after “also recorded” stand apart in the source; their conditions may differ.

For assay [1], the system named is NZM6 melanoma line (wild-type p53). Kind of assay: Induction of cell cycle arrest, flow cytometry. To be noted: NZM6, 0.3 μM for one hour, grown up to 9 days. The assay is classed as cell-based, human. The method, then:
(§1) Flow cytometry was used to determine the magnitude and duration of cell cycle arrest induced by the compound of the present invention. Two human melanoma lines were used in a preliminary study, one having wild-type p53 status (NZM6) and one having mutant p53 status (NZM4). Cells were exposed to the compound of Formula II for one hour at a concentration of 0.3 μM, washed free of drug and grown for up to a further 9 days.
Background: A flow cytometer gives signals particle by particle.

In assay [2] the test system is NZM4 melanoma line (mutant p53). In words: Induction of cell cycle arrest, flow cytometry. The assay is classed as cell-based, human. The note with it: NZM4, 0.3 μM for one hour, grown up to 9 days. The method, then: as §1
In assay [3] the test system is HCT116 human colon carcinoma line, TP53 wild type. Kind of assay: In vitro cell survival, clonogenic assay. The assay is classed as cell-based. The note with it: p53 wild-type HCT116, 6 hours exposure. The method, then: (§2) Two HCT116 human colon carcinoma lines, one with TP53 wild type status and one with TP53 mutant status, were exposed to the compound of Formula II for 6 hours. The cells were washed free of drug and surviving cells were measured by clonogenic assay. The concentration for maximal reduction of cell survival was 1% for p53 wild-type cells and 5% for p53 mutant cells. The cytotoxicity of the compound of the present invention was also tested in three Jurkat leukaemia lines, two of which, JLA and JLD, are resistant to topoisomerase inhibitors because of low cellular levels of topoisomerase II.

The subject of assay [4] is HCT116 human colon carcinoma line, TP53 mutant. Kind of assay: In vitro cell survival, clonogenic assay. Type of assay: cell-based. To be noted: p53 mutant HCT116, 6 hours exposure. The method, then: as §2
Assay [5] has as its system survivin in HCT116 (TP53 wild type). In words: Inhibition of survivin production, western blotting. The note with it: various concentrations, 24 hours. Type of assay: cell-based, human. The method, then:
Survivin is a protein that is expressed selectively in many types of cancer cells and which is known to be associated with resistance to apoptosis (Zaffaroni N and Daidone M G. Survivin expression and resistance to anticancer treatments: perspectives for new therapeutic interventions. Drug Resistance Updates: Reviews and Commentaries in Antimicrobial and Anticancer Chemotherapy. 2002 5(2):65-72). […] Extracts were prepared, proteins were separated by electrophoresis and survivin expression was determined by western blotting.

In assay [6] the test system is JLD. Kind of assay: In vitro cell proliferation assay, continuous drug exposure. The assay is classed as cell-based. The note with it: Homo sapiens; JLD (reduced topoisomerase II), continuous drug exposure 3-5 days. The text has this:
(§3) The results with the JLA and JLD lines, which have reduced topoisomerase II content as compared to the parental Jurkat line, indicate that the IC50 value of the compound is increased with decreased topoisomerase content. This is also the case for etoposide, amsacrine, DACA and doxorubicin.

The test system of the next assay is HCT116p53+. The description is as above. The assay is classed as cell-based. To be noted: Homo sapiens, continuous drug exposure 3-5 days.
Text: as §3

For a further assay, the system named is Jurkat. The description is as above. The assay is classed as cell-based. To be noted: Homo sapiens, continuous drug exposure 3-5 days.
Text: as §3

In the next assay the test system is HCT116p53−. The description is as above. The note with it: Homo sapiens, continuous drug exposure 3-5 days. Type of assay: cell-based.
Text: as §3

In assay [7] the test system is JLA. Described as above. Type of assay: cell-based. To be noted: Homo sapiens; JLA (reduced topoisomerase II), continuous drug exposure 3-5 days.
Text: as §3

The next assay has as its system colon 38 tumours. Kind of assay: Murine colon 38 tumour response. The note with it: single oral dose (8.9 mg/kg). Type of assay: in vivo. The text has this:
The murine colon-38 carcinoma is a transplantable tumour that has been used extensively in drug development programmes to determine the activity of many different drugs (Goldin A et al. Current results of the screening program at the Division of Cancer Treatment, National Cancer Institute. European Journal of Cancer. 1981. 17(2):129-142). The tumour is implanted subcutaneously as 1-mm^3 fragments and allowed to grow (8 days) to a tumour of approximately 3 mm in diameter before administration of test drugs.

In assay [8] the test system is melanoma tissue taken from a patient. Kind of assay: Response of a melanoma taken directly from a cancer patient, xenograft in immunodeficient mice. Type of assay: in vivo, human. To be noted: two doses of 5.9 mg/kg, 7 days apart. The method, then:
Metastatic melanoma is particularly resistant to current chemotherapy. Melanoma tissue taken from a patient at surgery was implanted subcutaneously in immunodeficient mice. After three months, the tumour in one animal was excised and transferred to further immunodeficient mice. The tumours were grown to a diameter of approximately 4 mm before treatment and the compound of Formula II was administered in two doses of 5.9 mg/kg, 7 days apart.
For orientation: Xenograft models place foreign cells or tissue in a host animal.

The test system of assay [9] is p53, p21 and Fas in HCT116 (TP53 wild type). In words: Induction of the p53 pathway, western blotting. The assay is classed as cell-based, human. The text has this: The p53 protein is thought to play a major role in the induction of apoptosis in tumour cells (Levine A J. p53, the cellular gatekeeper for growth and division. Cell. 1997. 88(3):323-331). The p53 protein is a transcriptional activator, which acts in response to DNA damage and other stress pathways, and increases expression of proteins such as Fas and p21^WAF1. […] Products were detected by western blotting.
A general note: Immunoblotting shows a protein as a band on a membrane.

Assay [10] relates to JLD. Kind of assay: In vitro cell survival assay. Type of assay: cell-based, human. The note with it: resistant line JLD, 0.4 μM, one hour exposure. The method, then: as §2
A further assay concerns wild-type Jurkat line. In words: In vitro cell survival assay. The assay is classed as cell-based, human. The note with it: 0.4 μM, one hour exposure. The method, then:
as §2

Assay [11] has as its system JLA. In words: In vitro cell survival assay. The assay is classed as cell-based, human. To be noted: resistant line JLA, 0.4 μM, one hour exposure. The method, then:
as §2

A word on the IC50: it is the concentration at which inhibition is half-maximal. Read a high IC50 as a need for much substance. On to `Cc1cccc2cc3c(=O)n(C)cc(C(=O)NCCN(C)C)c3nc12` [Formula II, N-[2-(dimethylamino)ethyl]-2,6 dimethyl-1-oxo-1,2-dihydrobenzo[b]-1,6-naphthyridine-4-carboxamide], for which the cell cycle arrest entry is “extended arrest of NZM6 cells in both G1- and G2-phase” in assay [1]; “minimal effect in G1-phase but an extended effect in G2-phase” in [2]. For the same molecule, the “maximal reduction of cell survival” value in assay [3] was 1%; in [4], 5%. Besides, the survivin expression entry in assay [5] is “suppress survivin production”. Further, the IC50 with JLD [6] came to 0.053 µM; in the assay with HCT116p53+ it was 0.0086 µM; in the assay on Jurkat, 0.0067 µM; in the assay with HCT116p53−, 0.011 µM; in the assay with JLA [7], 0.038 µM. The “response of colon 38 tumours” value in the assay on colon 38 tumours is listed as “complete regression; also recorded: single dose cures”. The melanoma growth result in assay [8] is given as “strong inhibition of melanoma growth”. Moreover, the entries for the “induction of p53, p21 and Fas” value in assay [9] (24 hours at higher cell density (approaching confluence)), in [9] (24 hours exposure) and in assay [9] (earlier times (4-10 hours)) were “induced these proteins”, “much greater response” and “induced these proteins”, respectively. In addition, the survival in the assay on JLD [10] is listed as 100%; in the assay with wild-type Jurkat line it was 28%; with JLA [11], 100%.
